Experimental data: ChEMBL document CHEMBL6120969, “Distinctive Immune Signatures Driven by Structural Alterations in Desmuramylpeptide NOD2 Agonists” (J Med Chem, 2024)
Calls of active or inactive are those of the source. No cut-off for these calls is given here.

Columns and labels:
BMDC [1] = assay: Adjuvant activity in OVA-immunized C57BL/6J mouse BMDC cells co-cultured with mouse CD8+ T cells assessed as reduction in IFN-gamma production at 10 uM incubated for 18 hrs by flow cytometry analysis; format: functional, cell-based
PBMC [2] = assay: Immunomodulatory activity in human PBMC cells assessed as increase in IP-10 level at 2 uM incubated for 18 hrs y flow cytometry analysis; format: functional, cell-based
Outline: (§1)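 Human donor PBMCs (Ficoll-Paque; 1 × 10^6 cells/mL, 500 μL, 48-well plates) were treated with compounds at 2 μM or 0.1% DMSO vehicle without LPS for 18 h at 37 °C, 5% CO2. Cytokines in cell-free supernatants were quantified with the LEGENDplex Human Essential Immune Response Panel on a flow cytometer against kit recombinant standard curves. Four independent replicates; two-way ANOVA with Tukey's test.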

BMDC [3] = assay: Adjuvant activity in OVA-immunized C57BL/6J mouse BMDC cells co-cultured with mouse CD8+ T cells assessed as increase in IL-9 production at 10 uM incubated for 18 hrs by flow cytometry analysis; format: functional, cell-based
PBMC [4] = assay: Immunomodulatory activity in human PBMC cells assessed as increase in MCP-1 level at 2 uM incubated for 18 hrs y flow cytometry analysis; format: functional, cell-based; outline: as §1
PBMC [5] = assay: Immunomodulatory activity in human PBMC cells assessed as increase in LPS-induced MCP-1 level at 2 uM incubated for 18 hrs y flow cytometry analysis; format: functional, cell-based
Outline: (§2)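 Peripheral blood mononuclear cells from human donors were isolated with Ficoll-Paque and plated in 48-well plates at 1 × 10^6 cells/mL, 500 μL per well. Cells received compounds at 2 μM or 0.1% DMSO together with LPS (10 ng/mL) and were kept for 18 h at 37 °C, 5% CO2. Cytokine levels in cell-free supernatants were measured by flow cytometry with the LEGENDplex Human Essential Immune Response Panel, using the kit's recombinant standard curves. Data come from four independent replicates analysed by two-way ANOVA with Tukey's test.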

PBMC [6] = assay: Immunomodulatory activity in human PBMC cells assessed as increase in TGF-beta1 level at 2 uM incubated for 18 hrs y flow cytometry analysis; format: functional, cell-based; outline: as §1
BMDC [7] = assay: Adjuvant activity in OVA-immunized C57BL/6J mouse BMDC cells co-cultured with mouse CD4+ T cells assessed as increase in IL-6 production at 10 uM incubated for 18 hrs by flow cytometry analysis; format: functional, cell-based
PBMC [8] = assay: Immunomodulatory activity in human PBMC cells assessed as increase in IL-12p70 level at 2 uM incubated for 18 hrs y flow cytometry analysis; format: functional, cell-based; outline: as §1
[9] = Cytotoxicity against human PBMC cells at 10 uM incubated for 4 hrs in presence of MDP; format: toxicity, cell-based
PBMC [10] = assay: Immunomodulatory activity in human PBMC cells assessed as increase in TNF-alpha level at 2 uM incubated for 18 hrs y flow cytometry analysis; format: functional, cell-based; outline: as §1
PBMC [11] = assay: Cytotoxicity against human PBMC cells co-cultured with human K562 cells at 10 uM incubated for 4 hrs; format: functional, cell-based
Outline: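 Killing was scored as the share of K562 cells positive for both CFSE and Sytox blue. Human PBMCs were seeded in 96-well plates at 4 × 10^5 per well and pretreated for 18 h with compounds at 10 μM, with 0.1% DMSO as vehicle. CFSE-stained K562 cells were then added at 1 × 10^4 per well (effector:target 40:1) for 4 h at 37 °C, 5% CO2, before Sytox blue staining and reading on an Attune NxT flow cytometer. Assays ran in duplicate across three independent biological replicates and were analysed by one-way ANOVA with Dunnett's test.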

PBMC [12] = assay: Immunomodulatory activity in human PBMC cells assessed as increase in LPS-induced IL-10 level at 2 uM incubated for 18 hrs y flow cytometry analysis; format: functional, cell-based; outline: as §2
PBMC [13] = assay: Immunomodulatory activity in human PBMC cells assessed as increase in IL-4 level at 2 uM incubated for 18 hrs y flow cytometry analysis; format: functional, cell-based; outline: as §1
BMDC [14] = assay: Adjuvant activity in OVA-immunized C57BL/6J mouse BMDC cells co-cultured with mouse CD4+ T cells assessed as increase in IL-4 production at 10 uM incubated for 18 hrs by flow cytometry analysis; format: functional, cell-based
BMDC [15] = assay: Adjuvant activity in OVA-immunized C57BL/6J mouse BMDC cells co-cultured with mouse CD4+ T cells assessed as increase in IL-9 level at 10 uM incubated for 18 hrs; format: functional, cell-based
PBMC [16] = assay: Immunomodulatory activity in human PBMC cells assessed as increase in LPS-induced IP-10 level at 2 uM incubated for 18 hrs y flow cytometry analysis; format: functional, cell-based; outline: as §2
PBMC [17] = assay: Immunomodulatory activity in human PBMC cells assessed as increase in IFN-gamma level at 2 uM incubated for 18 hrs y flow cytometry analysis; format: functional, cell-based; outline: as §1
PBMC [18] = assay: Immunomodulatory activity in human PBMC cells assessed as increase in IL-2 level at 2 uM incubated for 18 hrs y flow cytometry analysis; format: functional, cell-based; outline: as §1
PBMC [19] = assay: Immunomodulatory activity in human PBMC cells assessed as increase in LPS-induced IL-6 level at 2 uM incubated for 18 hrs y flow cytometry analysis; format: functional, cell-based; outline: as §2
BMDC [20] = assay: Adjuvant activity in OVA-immunized C57BL/6J mouse BMDC cells co-cultured with mouse CD4+ T cells assessed as reduction in IFN-gamma production at 10 uM incubated for 18 hrs by flow cytometry analysis; format: functional, cell-based
[21] = Cytotoxicity against human HEK-Blue hNOD2 cells assessed as metabolic activity at 10 uM incubated for 18 hes by MTT assay; format: toxicity, cell-based; details: hek-blue hnod2, 10 µM
BMDC [22] = assay: Adjuvant activity in OVA-immunized C57BL/6J mouse BMDC cells co-cultured with mouse CD4+ T cells assessed as increase in IL-2 level at 10 uM incubated for 18 hrs; format: functional, cell-based
PBMC [23] = assay: Immunomodulatory activity in human PBMC cells assessed as increase in LPS-induced IL-1beta level at 2 uM incubated for 18 hrs y flow cytometry analysis; format: functional, cell-based
PBMC [24] = assay: Immunomodulatory activity in human PBMC cells assessed as increase in IL-6 level at 2 uM incubated for 18 hrs y flow cytometry analysis; format: functional, cell-based; outline: as §1
PBMC [25] = assay: Immunomodulatory activity in human PBMC cells assessed as increase in IL-10 level at 2 uM incubated for 18 hrs y flow cytometry analysis; format: functional, cell-based; outline: as §1
PBMC [26] = assay: Immunomodulatory activity in human PBMC cells assessed as increase in IL-8 level at 2 uM incubated for 18 hrs y flow cytometry analysis; format: functional, cell-based; outline: as §1
PBMC [27] = assay: Immunomodulatory activity in human PBMC cells assessed as increase in IL-17A level at 2 uM incubated for 18 hrs y flow cytometry analysis; format: functional, cell-based; outline: as §1
PBMC [28] = assay: Immunomodulatory activity in human PBMC cells assessed as increase in IL-1beta level at 2 uM incubated for 18 hrs y flow cytometry analysis; format: functional, cell-based; outline: as §1
PBMC [29] = assay: Immunomodulatory activity in human PBMC cells assessed as increase in LPS-induced IFN-gamma level at 2 uM incubated for 18 hrs y flow cytometry analysis; format: functional, cell-based
BMDC [30] = assay: Adjuvant activity in OVA-immunized C57BL/6J mouse BMDC cells co-cultured with mouse CD8+ T cells assessed as increase in IL-6 production at 10 uM incubated for 18 hrs by flow cytometry analysis; format: functional, cell-based
PBMC [31] = assay: Immunomodulatory activity in human PBMC cells assessed as increase in LPS-induced IL-12p70 level at 2 uM incubated for 18 hrs y flow cytometry analysis; format: functional, cell-based
[32] = Cytotoxicity against human PBMC cells at 10 uM incubated for 4 hrs; format: toxicity, cell-based
Outline: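 Direct cytotoxicity was scored as the fraction of Sytox blue-positive cells among human PBMCs cultured without other cells. The PBMCs were exposed to compounds at 10 μM, with 0.1% DMSO as vehicle, alongside a K562 killing assay, then stained with Sytox blue dead cell stain and run on an Attune NxT flow cytometer, with analysis in FlowJo. Each condition was tested in duplicate across three independent biological replicates, and one-way ANOVA with Dunnett's test was applied.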

PBMC [33] = assay: Immunomodulatory activity in human PBMC cells assessed as increase in LPS-induced TNF-alpha level at 2 uM incubated for 18 hrs y flow cytometry analysis; format: functional, cell-based
BMDC [34] = assay: Adjuvant activity in OVA-immunized C57BL/6J mouse BMDC cells assessed as increase in CD4+ T cell activation incubated for 18 hrs; format: functional, cell-based
Outline: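 Dendritic cells were derived from C57BL/6 mouse bone marrow by 7 days of culture with GM-CSF, then pretreated for 18 h with compounds at 10 μM together with 50 μg/mL ovalbumin and washed. These cells (1 × 10^4/well) were co-cultured with 5 × 10^4 CFSE-labelled OT II CD4+ T cells for 72 h at 37 °C in 5% CO2. T-cell activation was assessed by flow cytometry on live Thy1.2+/CD4+ cells, using CFSE dilution and CD25 expression as readouts. Assays were run in duplicate across two independent biological replicates and analysed with paired t tests.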

[35] = Anti-inflammatory activity in human PBMC cells assessed as increase in percentage of classical monocytes at 10 uM incubated for 18 hrs by flow cytometry analysis; format: functional
[36] = Anti-inflammatory activity in human PBMC cells assessed as increase in percentage of non classical monocytes at 10 uM incubated for 18 hrs by flow cytometry analysis; format: functional
[37] = Anti-inflammatory activity in human PBMC cells assessed as increase in percentage of intermediate monocytes at 10 uM incubated for 18 hrs by flow cytometry analysis; format: functional

Row | SMILES | Activity (PBMC [2]) | Activity (PBMC [4]) | Activity (PBMC [5]) | Activity (PBMC [6]) | Activity (PBMC [8]) | Activity (PBMC [10]) | Activity (PBMC [11]) | Activity (PBMC [12]) | Activity (PBMC [13]) | Activity (BMDC [15]) | Activity (PBMC [16]) | Activity (PBMC [17]) | Activity (PBMC [18]) | Activity (PBMC [19]) | Activity [21] | Activity (BMDC [22]) | Activity (PBMC [23]) | Activity (PBMC [24]) | Activity (PBMC [25]) | Activity (PBMC [26]) | also measured
1 | CCOC(=O)[C@@H](CCC(=O)NC12C[C@H]3C[C@@H](C1)C[C@@H](C2)C3)NC(=O)[C@@H](NC(=O)CNC(=O)/C=C/c1ccc(O)c(OC)c1)C(C)C | Active | Active | Active | Active | Active | Active | inactive | Active | Active | Active | Active | Active | Active | Active | Non-toxic | Active | Active | Active | Active | Active | Activity (BMDC [1]): Active; Activity (BMDC [3]): Active; Activity (BMDC [7]): Active; Activity [9]: Non-toxic; Activity (BMDC [14]): Active; Activity (BMDC [20]): Active; Activity (PBMC [27]): Active; Activity (PBMC [28]): Active; Activity (PBMC [29]): Active; Activity (BMDC [30]): Active; Activity (PBMC [31]): Active; Activity [32]: Non-toxic; Activity (PBMC [33]): Active; Activity (BMDC [34]): Active
2 | CCCC(=O)Oc1ccc(/C=C/C(=O)NCC(=O)N[C@H](C(=O)N[C@H](CCC(=O)OCC)C(=O)OCC)C(C)C)cc1OC | Active | Active | Active | Active | Active | Active | inactive | Active | Active | Active | Active | Active | Active | Active | Non-toxic | Active | Active | Active | Active | Active | Activity (BMDC [1]): Active; Activity [9]: Non-toxic; Activity (BMDC [14]): Active; Activity (BMDC [20]): Active; Activity (PBMC [27]): Active; Activity (PBMC [28]): Active; Activity (PBMC [29]): Active; Activity (BMDC [30]): Active; Activity (PBMC [31]): Active; Activity [32]: Non-toxic; Activity (PBMC [33]): Active; Activity (BMDC [34]): Active
3 | CC/C=C\C/C=C\C/C=C\C/C=C\C/C=C\CCCC(=O)Oc1ccc(/C=C/C(=O)NCC(=O)N[C@H](C(=O)N[C@H](CCC(=O)OCC)C(=O)OCC)C(C)C)cc1OC | Active | Active | Active | Active | Active | Active | inactive | Active | Active | Active | Active | Active | Active | Active | Non-toxic | Active | Active | Active | Active | Active | Activity (BMDC [1]): Active; Activity [9]: Non-toxic; Activity (BMDC [14]): Active; Activity (BMDC [20]): Active; Activity (PBMC [27]): Active; Activity (PBMC [28]): Active; Activity (PBMC [29]): Active; Activity (BMDC [30]): Active; Activity (PBMC [31]): Active; Activity [32]: Non-toxic; Activity (PBMC [33]): Active; Activity (BMDC [34]): Active
4 | CCOC(=O)CC[C@@H](NC(=O)[C@@H](NC(=O)CNC(=O)/C=C/c1ccc(OC(=O)CO[C@H]2CC[C@@]3(C)C(=CC[C@H]4[C@@H]5CC[C@H]([C@H](C)CCCC(C)C)[C@@]5(C)CC[C@@H]43)C2)c(OC)c1)C(C)C)C(=O)OCC | Active | Active | Active | Active | Active | Active | Active | Active | Active | Active | Active | Active | Active | Active | Non-toxic | Active | Active | Active | Active | Active | Activity [35]: 0.35%; Activity (BMDC [3]): Active; Activity [36]: 76.6%; Activity (BMDC [7]): Active; Activity [37]: 4.53%; Activity (PBMC [27]): Active; Activity (PBMC [28]): Active; Activity (PBMC [29]): Active; Activity (PBMC [31]): Active; Activity [32]: Moderate_effect; Activity (PBMC [33]): Active; Activity (BMDC [34]): Active
